Results from paper PMC7033309, “π-Helix controls activity of oxygen-sensing diguanylate cyclases” (Bioscience Reports, 2020).

Tests used:
PccGCS [1] = biological target: T1, PccGCS (Pectobacterium carotovorum, UniProt C6D9C2); assay: EnzChek pyrophosphate diguanylate cyclase turnover assay with purified protein, […] GTP; format: biochemical
T1 construct: gene PC1_2619; full-length PccGCS WT (His-tagged)

PccGCS [2] = biological target: T2, PccGCS (Pectobacterium carotovorum, UniProt C6D9C2, H237A/K238A); assay: as above; format: biochemical
T2 construct: gene PC1_2619; full-length PccGCS H237A/K238A (His-tagged)
T2 sequence (C6D9C2 1-471 H237A/K238A): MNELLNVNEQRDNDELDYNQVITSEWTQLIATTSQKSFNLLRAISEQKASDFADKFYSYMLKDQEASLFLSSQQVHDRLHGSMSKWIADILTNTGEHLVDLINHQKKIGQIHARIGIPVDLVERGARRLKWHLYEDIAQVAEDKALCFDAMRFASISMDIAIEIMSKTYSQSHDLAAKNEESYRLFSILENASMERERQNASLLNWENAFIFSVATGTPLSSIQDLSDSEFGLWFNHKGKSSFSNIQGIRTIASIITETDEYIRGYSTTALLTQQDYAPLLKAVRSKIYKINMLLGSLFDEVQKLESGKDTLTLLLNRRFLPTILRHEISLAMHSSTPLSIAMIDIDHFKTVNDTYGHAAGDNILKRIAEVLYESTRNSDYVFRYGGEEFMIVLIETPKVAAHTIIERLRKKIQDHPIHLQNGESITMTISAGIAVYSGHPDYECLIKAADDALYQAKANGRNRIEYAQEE

Nc1nc2c(ncn2[C@@H]2O[C@H](COP(=O)(O)OP(=O)(O)OP(=O)(O)O)[C@@H](O)[C@H]2O)c(=O)[nH]1 [GTP]
EnzChek pyrophosphate diguanylate cyclase turnover assay with purified protein, (PccGCS [1]): 0.759 min⁻¹ | EnzChek pyrophosphate diguanylate cyclase turnover assay with purified protein, (PccGCS [2]): 0.0227 min⁻¹
